The target in assay [1] is T1, human mAChR M1 (Homo sapiens, UniProt P11229).
T1 construct: host or cells: CHO-K1 cells (ATCC), stably transfected using Lipofectamine2000
T1 sequence (P11229 1-460): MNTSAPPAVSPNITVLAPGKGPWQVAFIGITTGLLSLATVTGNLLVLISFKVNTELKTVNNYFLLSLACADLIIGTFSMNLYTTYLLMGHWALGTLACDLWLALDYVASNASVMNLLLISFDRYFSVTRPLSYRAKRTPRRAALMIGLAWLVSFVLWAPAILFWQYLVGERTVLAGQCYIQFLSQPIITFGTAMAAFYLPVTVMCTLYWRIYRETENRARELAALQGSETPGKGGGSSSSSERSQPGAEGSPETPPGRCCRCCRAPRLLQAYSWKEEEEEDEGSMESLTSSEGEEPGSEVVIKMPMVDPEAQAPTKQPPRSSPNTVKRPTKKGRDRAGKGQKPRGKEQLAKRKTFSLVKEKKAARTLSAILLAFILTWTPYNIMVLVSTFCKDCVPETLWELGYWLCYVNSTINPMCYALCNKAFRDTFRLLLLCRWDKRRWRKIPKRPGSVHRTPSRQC
The assay can be described thus: mAChR M1 cell-based functional assay (calcium mobilization), PAM activity: increase in the EC20 acetylcholine response. The settings on record: CHO-K1 cells expressing hM1; potentiation of EC20 acetylcholine response. The procedure, abridged:
(§1)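 CHO-K1 cells stably expressing hM1, loaded with Fluo-4 AM; calcium flux read on FDSS 6000. Compound (11-point, 1:3 CRC) added at 4 s, EC20 acetylcholine at 144 s, EC80 at 230 s; agonism from response to compound alone, PAM from increase in EC20 response; Emax relative to acetylcholine maximum, four-parameter fit.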

Assay [2] has as its target T1, human mAChR M1. As to the kind of experiment: mAChR M1 cell-based functional assay (calcium mobilization), agonist activity upon compound addition. Particulars: CHO-K1 cells expressing hM1; for EC50: compound alone, before acetylcholine addition; for Emax: relative to the maximum for acetylcholine. The procedure, abridged:
as §1

`Cn1cc(-c2ccc(Cn3cc(C(=O)N[C@H]4CCOC[C@@H]4O)c4occc4c3=O)c(F)c2)cn1` [Compound D12, 5-(2-fluoro-4-(1-methyl-1H-pyrazol-4-yl)benzyl)-N-((3R,4S)-3-hydroxytetrahydro-2H-pyran-4-yl)-4-oxo-4,5-dihydrofuro[3,2-c]pyridine-7-carboxamide]: the EC50 was 4.02 µM in assay [1] and above 10 µM in assay [2]. The maximal effect (Emax) was 67% in assay [1] and below 5% in assay [2].

With `Cn1cc(-c2ccc(Cn3cc(C(=O)N[C@H]4CCCC[C@@H]4O)c4occc4c3=O)c(F)c2)cn1` [Compound D13, 5-(2-fluoro-4-(1-methyl-1H-pyrazol-4-yl)benzyl)-N-((1S,2S)-2-hydroxycyclohexyl)-4-oxo-4,5-dihydrofuro[3,2-c]pyridine-7-carboxamide], in assay [1], the concentration for a half-maximal effect (EC50) is 2.12 µM and the maximal response (Emax) was determined as 81%. Also, in assay [2], the 50% effective concentration (EC50) is above 10 µM and the maximal effect (Emax) was 11%.

On to `Cn1cc(-c2ccc(Cn3cc(C(=O)N[C@H]4CCC[C@@H]4O)c4occc4c3=O)c(F)c2)cn1` [Compound D14, 5-(2-fluoro-4-(1-methyl-1H-pyrazol-4-yl)benzyl)-N-((1S,2S)-2-hydroxycyclopentyl)-4-oxo-4,5-dihydrofuro[3,2-c]pyridine-7-carboxamide], for which the EC50 in assay [1] and in assay [2] was above 10 µM each time. For the same compound, the values for the Emax in assay [1] and in assay [2] were 51% and below 5%, respectively.

Consider `Cn1cc(-c2ccc(Cn3cc(C(=O)N[C@H]4CCCCC[C@@H]4O)c4occc4c3=O)c(F)c2)cn1` [Compound D16, 5-(2-fluoro-4-(1-methyl-1H-pyrazol-4-yl)benzyl)-N-((1S,2S)-2-hydroxycycloheptyl)-4-oxo-4,5-dihydrofuro[3,2-c]pyridine-7-carboxamide], for which the results for the EC50 in assay [1] and in assay [2] were 2.02 µM and above 10 µM, respectively. Also, the maximum response (Emax) in assay [1] came out at 75%; in assay [2], 8%.

Consider `Cn1cc(-c2ccc(Cn3cc(C(=O)NC4CC5(COC5)C4)c4occc4c3=O)c(F)c2)cn1` [Compound D17, 5-(2-fluoro-4-(1-methyl-1H-pyrazol-4-yl)benzyl)-4-oxo-N-(2-oxaspiro[3.3]heptan-6-yl)-4,5-dihydrofuro[3,2-c]pyridine-7-carboxamide], for which the EC50 in assay [1] and in assay [2] was above 10 µM throughout. Besides, the maximum response (Emax) in assay [1] is 40%; in assay [2], below 5%.

For `Cn1cc2c(-c3cc(F)c(Cn4cc(C(=O)N[C@H]5CCOC[C@@H]5O)c5occc5c4=O)c(F)c3)cccc2n1` [Compound D18, 5-(2,6-Difluoro-4-(2-methyl-2H-indazol-4-yl)benzyl)-N-((3R,4S)-3-hydroxytetrahydro-2H-pyran-4-yl)-4-oxo-4,5-dihydrofuro[3,2-c]pyridine-7-carboxamide], in assay [1], the concentration giving a half-maximal response (EC50) stood at 0.28 µM and the Emax amounted to 85%. Further, in assay [2], the 50% effective concentration (EC50) amounted to 2.27 µM and the maximal response (Emax) stood at 11%.

`Cn1cc2c(-c3cc(F)c(Cn4cc(C(=O)N[C@H]5CCCC[C@@H]5O)c5occc5c4=O)c(F)c3)cccc2n1` [Compound D19, 5-(2,6-difluoro-4-(2-methyl-2H-indazol-4-yl)benzyl)-N-((1S,2S)-2-hydroxycyclohexyl)-4-oxo-4,5-dihydrofuro[3,2-c]pyridine-7-carboxamide]: in assay [1], the EC50 amounted to 0.43 µM and the Emax was 82%. In addition, in assay [2], the EC50 was above 10 µM and the maximal effect (Emax) turned out to be 9%.

On to `Cn1cc2c(-c3cc(F)c(Cn4cc(C(=O)N[C@H]5CCC[C@@H]5O)c5occc5c4=O)c(F)c3)cccc2n1` [Compound D20, 5-(2,6-difluoro-4-(2-methyl-2H-indazol-4-yl)benzyl)-N-((1S,2S)-2-hydroxycyclopentyl)-4-oxo-4,5-dihydrofuran[3,2-c]pyridine-7-carboxamide], for which, in assay [1], the EC50 amounted to 0.81 µM and the Emax was determined as 77%. In addition, in assay [2], the EC50 was above 10 µM and the maximal effect (Emax) is below 5%.

Regarding `Cn1cc2c(-c3cc(F)c(Cn4cc(C(=O)N[C@H]5CCCCC[C@@H]5O)c5occc5c4=O)c(F)c3)cccc2n1` [Compound D22, 5-(2,6-difluoro-4-(2-methyl-2H-indazol-4-yl)benzyl)-N-((1S,2S)-2-hydroxycycloheptyl)-4-oxo-4,5-dihydrofuro[3,2-c]pyridine-7-carboxamide], in assay [1], the EC50 is 0.95 µM and the Emax was 81%. Besides, in assay [2], the EC50 was above 10 µM and the maximal response (Emax) is 9%.

With `Cn1cc2c(-c3cc(F)c(Cn4cc(C(=O)NC5CCOCC5)c5occc5c4=O)c(F)c3)cccc2n1` [Compound D23, 5-(2,6-difluoro-4-(2-methyl-2H-indazol-4-yl)benzyl)-4-oxo-N-(tetrahydro-2H-pyran-4-yl)-4,5-dihydrofuro[3,2-c]pyridine-7-carboxamide], in assay [1], the 50% effective concentration (EC50) came to 4.12 µM and the maximal response (Emax) came out at 64%. Also, in assay [2], the half-maximal effective concentration (EC50) was above 10 µM and the maximal effect (Emax) is below 5%.

Take `Cn1cc2c(-c3cc(F)c(Cn4cc(C(=O)NC5CC6(COC6)C5)c5occc5c4=O)c(F)c3)cccc2n1` [Compound D24, 5-(2,6-difluoro-4-(2-methyl-2H-indazol-4-yl)benzyl)-4-oxo-N-(2-oxaspiro[3.3]heptan-6-yl)-4,5-dihydrofuro[3,2-c]pyridine-7-carboxamide]: in assay [1], the EC50 was found to be 2.48 µM and the Emax was determined as 70%. In assay [2], the EC50 is above 10 µM and the maximum response (Emax) was below 5%.

As for `Cn1cc2c(-c3cc(F)c(Cn4cc(C(=O)NCC5CCCO5)c5occc5c4=O)c(F)c3)cccc2n1` (stereo not drawn) [Compound D25, 5-(2,6-difluoro-4-(2-methyl-2H-indazol-4-yl)benzyl)-4-oxo-N-((tetrahydrofuran-2-yl)methyl)-4,5-dihydrofuro[3,2-c]pyridine-7-carboxamide], in assay [1], the EC50 is above 10 µM and the Emax is 53%. In addition, in assay [2], the EC50 is above 10 µM and the Emax is below 5%.

Regarding `Cn1ccc(-c2ccc(Cn3cc(C(=O)N[C@H]4CCOC[C@@H]4O)c4sccc4c3=O)c(F)c2)n1` [Compound D26, 5-(2-fluoro-4-(1-methyl-1H-pyrazol-3-yl)benzyl)-N-((3R,4S)-3-hydroxytetrahydro-2H-pyran-4-yl)-4-oxo-4,5-dihydrothieno[3,2-c]pyridine-7-carboxamide], in assay [1], the EC50 is above 10 µM and the Emax turned out to be 34%. In assay [2], the EC50 was above 10 µM and the maximal response (Emax) was below 5%.

`Cn1ccc(-c2ccc(Cn3cc(C(=O)N[C@H]4CCCC[C@@H]4O)c4sccc4c3=O)c(F)c2)n1` [Compound D27, 5-(2-fluoro-4-(1-methyl-1H-pyrazol-3-yl)benzyl)-N-((1S,2S)-2-hydroxycyclohexyl)-4-oxo-4,5-dihydrothieno[3,2-c]pyridine-7-carboxamide]: in assay [1], the EC50 is above 10 µM and the Emax was found to be 37%. Also, in assay [2], the concentration for a half-maximal effect (EC50) is above 10 µM and the maximum response (Emax) is below 5%.

Take `Cn1ccc(-c2ccc(Cn3cc(C(=O)N[C@H]4CCCCC[C@@H]4O)c4sccc4c3=O)c(F)c2)n1` [Compound D28, 5-(2-fluoro-4-(1-methyl-1H-pyrazol-3-yl)benzyl)-N-((1S,2S)-2-hydroxycycloheptyl)-4-oxo-4,5-dihydrothieno[3,2-c]pyridine-7-carboxamide]: in assay [1], the EC50 is above 10 µM and the maximum response (Emax) turned out to be 40%. Besides, in assay [2], the concentration giving a half-maximal response (EC50) is above 10 µM and the Emax was below 5%.

On to `Cn1cc(-c2ccc(Cn3cc(C(=O)N[C@H]4CCOC[C@@H]4O)c4sccc4c3=O)c(F)c2)cn1` [Compound D29, 5-(2-fluoro-4-(1-methyl-1H-pyrazol-4-yl)benzyl)-N-((3R,4S)-3-hydroxytetrahydro-2H-pyran-4-yl)-4-oxo-4,5-dihydrothieno[3,2-c]pyridine-7-carboxamide], for which the EC50 in assay [1] and in assay [2] was above 10 µM in each case. Further, the Emax was 37% in assay [1] and below 5% in assay [2].

As to `Cn1cc2c(-c3cc(F)c(Cn4cc(C(=O)N[C@H]5CCOC[C@@H]5O)c5sccc5c4=O)c(F)c3)cccc2n1` [Compound D30, 5-(2,6-difluoro-4-(2-methyl-2H-indazol-4-yl)benzyl)-N-((3R,4S)-3-hydroxytetrahydro-2H-pyran-4-yl)-4-oxo-4,5-dihydrothieno[3,2-c]pyridine-7-carboxamide], in assay [1], the EC50 came to 4.52 µM and the Emax came out at 69%. Moreover, in assay [2], the 50% effective concentration (EC50) is above 10 µM and the maximum response (Emax) is below 5%.

In the case of `Cn1cc2c(-c3cc(F)c(Cn4cc(C(=O)N[C@H]5CCCC[C@@H]5O)c5sccc5c4=O)c(F)c3)cccc2n1` [Compound D31, 5-(2,6-difluoro-4-(2-methyl-2H-indazol-4-yl)benzyl)-N-((1S,2S)-2-hydroxycyclohexyl)-4-oxo-4,5-dihydrothieno[3,2-c]pyridine-7-carboxamide], in assay [1], the EC50 is 7.98 µM and the maximal response (Emax) amounted to 54%. For the same compound, in assay [2], the EC50 is above 10 µM and the Emax is below 5%.

In general, EC50 refers to the concentration needed to bring the measured effect to its halfway point. A word on the Emax: it is the greatest response seen or fitted, relative to the assay's reference.

These data come from US20220041606A1, “POSITIVE ALLOSTERIC MODULATORS OF THE MUSCARINIC ACETYLCHOLINE RECEPTOR M1” (Vanderbilt University, priority 2020, published 2022).
